Data taken from PubChem BioAssay AID330 (DTP/NCI, 2004).
Several values for one entry are separate records, joined by “and”; a condition that tells them apart may be missing. Equal entries are not always repeated. Toxic doses and inconclusive results are not listed.

Test system: P388 leukemia ip, CD2F1 mice, survival T/C
Experiment: NCI In Vivo Anticancer Drug Screen. Data for tumor model P388 Leukemia (intraperitoneal) in CD2F1 (CDF1) mice
Conditions: endpoint: median survival time, higher = longer survival
In short: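 Mice carrying the transplanted tumor received test compound or vehicle. Survival was recorded in each group, and the value is the treated-group measurement divided by that of the vehicle-treated control group.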

[1] = dose: 50.0 mg/kg/injection, schedule: Q01DX005 (ip), vehicle: saline with Tween-80
[2] = dose: 100.0 mg/kg/injection, schedule: Q01DX005 (ip), vehicle: saline with Tween-80
[3] = dose: 200.0 mg/kg/injection, schedule: Q01DX005 (ip), vehicle: saline with Tween-80
[4] = dose: 60.0 mg/kg/injection, schedule: Q01DX005 (ip), vehicle: saline with Tween-80
[5] = dose: 120.0 mg/kg/injection, schedule: Q01DX005 (ip), vehicle: saline with Tween-80
[6] = dose: 100.0 mg/kg/injection, schedule: Q01DX009 (ip), vehicle: saline with Tween-80
[7] = dose: 200.0 mg/kg/injection, schedule: Q01DX009 (ip), vehicle: saline with Tween-80
[8] = dose: 25.0 mg/kg/injection, schedule: Q01DX009 (ip), vehicle: saline with Tween-80
[9] = dose: 50.0 mg/kg/injection, schedule: Q01DX009 (ip), vehicle: saline with Tween-80
[10] = dose: 50.0 mg/kg/injection, schedule: Q01DX005 (ip), vehicle: Klucel (hydroxypropylcellulose) (HPC)
[11] = dose: 100.0 mg/kg/injection, schedule: Q01DX005 (ip), vehicle: Klucel (hydroxypropylcellulose) (HPC)

`O=C(c1ccco1)N1CCN(C(=O)c2ccco2)CC1` was tested, and the T/C [1] was 104 % of control, the T/C [2] was 96 % of control and the T/C [3] was 100 % of control.

In the case of `N#Cc1nc(CC(=O)c2ccccn2)c(CC(=O)c2ccccn2)nc1C#N`, the T/C [4] is reported as 111 % of control and the T/C [5] is reported as 93 % of control.

In the case of `O=C1CCCOCCCOCCCOCCCOCCCOCCC1`, the T/C [1] is reported as 103 % of control, the T/C [2] is reported as 100 % of control and the T/C [3] is reported as 100 % of control.

`On1cnc(=S)c2[nH]cnc21` was tested, and the T/C [6] was 90 % of control, the T/C (dose: 100.0 mg/kg/injection, schedule: Q04DX003 (ip), vehicle: saline sonified) was 100 % of control and the T/C [7] was 100 % of control. The T/C (dose: 200.0 mg/kg/injection, schedule: Q04DX003 (ip), vehicle: saline sonified) was 100 % of control, the T/C (dose: 400.0 mg/kg/injection, schedule: Q01DX009 (ip), vehicle: saline with Tween-80) was 109 % of control and the T/C (dose: 400.0 mg/kg/injection, schedule: Q04DX003 (ip), vehicle: saline sonified) was 90 % of control.

With `Nc1nc(-c2ccccc2)nc(Cl)c1I` the T/C [8] was 103 % of control, the T/C [9] was 105 % of control and the T/C [6] was 102 % of control. The T/C (dose: 100.0 mg/kg/injection, schedule: Q04DX003 (ip), vehicle: saline) was 94 % of control, the T/C [7] was 105 % of control and the T/C (dose: 200.0 mg/kg/injection, schedule: Q04DX003 (ip), vehicle: saline) was 94 % of control. The T/C (dose: 400.0 mg/kg/injection, schedule: Q04DX003 (ip), vehicle: saline) was 101 % of control.

With `Nc1ccc(Nc2nc(Cl)nc(Nc3ccc(N)cc3)n2)cc1` the T/C [10] was 98 % of control, the T/C [11] was 90 % of control and the T/C (dose: 200.0 mg/kg/injection, schedule: Q01DX005 (ip), vehicle: Klucel (hydroxypropylcellulose) (HPC)) was 90 % of control.

With `CCOC1(C)C=CC(=NC(C)(C)C)C=C1` (stereo not given) the T/C [8] was 97 % of control, the T/C [9] was 101 % of control and the T/C [6] was 101 % of control.

In the case of `COC1/C=C/OC2(C)Oc3c(C)c(O)c4c(O)c(c(/C=N/NC5C6CC7CC(C6)CC5C7)c(O)c4c3C2=O)NC(=O)/C(C)=C/C=C/C(C)C(O)C(C)C(O)C(C)C(OC(C)=O)C1C` (stereo not given), the T/C (dose: 12.5 mg/kg/injection, schedule: Q01DX009 (ip), vehicle: saline with Tween-80) is reported as 106 % of control, the T/C [8] is reported as 109 % of control and the T/C [9] is reported as 113 % of control and 95 % of control.

`COC1=C(O)C(=O)N(C)C(=O)C1` was tested, and the T/C (dose: 0.93 mg/kg/injection, schedule: Q01DX005 (ip), vehicle: saline) was 104 % of control, the T/C (dose: 1.87 mg/kg/injection, schedule: Q01DX005 (ip), vehicle: saline) was 101 % of control and the T/C (dose: 3.75 mg/kg/injection, schedule: Q01DX005 (ip), vehicle: Klucel (hydroxypropylcellulose) (HPC)) was 110 % of control. For the same compound, the T/C (dose: 3.75 mg/kg/injection, schedule: Q01DX005 (ip), vehicle: saline) was 104 % of control.

In the case of `O=C1CC(=O)N(C2CCCCC2)C(=O)N1c1ccccc1S(=O)(=O)Oc1ccccc1`, the T/C [1] is reported as 103 % of control, the T/C [2] is reported as 101 % of control and the T/C [3] is reported as 103 % of control.

For `COc1ccc(C2(C3NCCC4=C3CCCC4)CC2)cc1` (stereo not given), the T/C [10] was 97 % of control and the T/C [11] was 100 % of control.

With `O=C1c2ccccc2C(O)(c2ccc(Cl)cc2)c2ccc(Cl)cc21` (stereo not given) the T/C [1] was 95 % of control, the T/C [2] was 98 % of control and the T/C [3] was 101 % of control.

`C[N+](C)=c1ccc2nc3c(cc(NCCCNc4cc5oc6cc(=[N+](C)C)ccc-6nc5c5ccccc45)c4ccccc43)oc-2c1` was tested, and the T/C [4] was 106 % of control, the T/C [5] was 113 % of control and the T/C (dose: 240.0 mg/kg/injection, schedule: Q01DX005 (ip), vehicle: saline with Tween-80) was 103 % of control.

With `NC(=O)c1ncn2c(=O)n(CCCl)nnc12` the T/C (dose: 6.25 mg/kg/injection, schedule: Q01DX005 (ip), vehicle: saline) was 181 % of control and 236 % of control, the T/C (dose: 6.7 mg/kg/injection, schedule: Q01DX005 (ip), vehicle: saline) was 254 % of control and the T/C (dose: 10.0 mg/kg/injection, schedule: Q01DX005 (ip), vehicle: saline) was 565 % of control and 566 % of control. The T/C (dose: 12.5 mg/kg/injection, schedule: Q01DX005 (ip), vehicle: saline) was 272 % of control and 275 % of control and 297 % of control, the T/C (dose: 15.0 mg/kg/injection, schedule: Q01DX005 (ip), vehicle: saline) was 566 % of control and 606 % of control and the T/C (dose: 22.0 mg/kg/injection, schedule: Q01DX005 (ip), vehicle: saline) was 393 % of control and 566 % of control. For the same compound, the T/C (dose: 25.0 mg/kg/injection, schedule: Q01DX005 (ip), vehicle: saline) was 272 % of control and 297 % of control and 306 % of control, the T/C (dose: 33.0 mg/kg/injection, schedule: Q01DX005 (ip), vehicle: saline) was 566 % of control and 606 % of control and the T/C [10] was 100 % of control.

With `CCOC(=O)c1ccc(N/N=C\C(C)=N/NC(=S)NC)cc1` the T/C (dose: 100.0 mg/kg/injection, schedule: Q01DX001 (ip), vehicle: saline) was 108 % of control, the T/C (dose: 200.0 mg/kg/injection, schedule: Q01DX001 (ip), vehicle: saline) was 108 % of control and the T/C (dose: 400.0 mg/kg/injection, schedule: Q01DX001 (ip), vehicle: saline) was 100 % of control.

For `Cc1ccc(COc2ccc(Cl)cc2Cn2ccnc2)cc1`, the T/C (dose: 25.0 mg/kg/injection, schedule: Q04DX002 (ip), vehicle: saline) was 104 % of control, the T/C (dose: 50.0 mg/kg/injection, schedule: Q04DX002 (ip), vehicle: saline) was 106 % of control and the T/C (dose: 100.0 mg/kg/injection, schedule: Q04DX002 (ip), vehicle: saline) was 106 % of control and 116 % of control.

In the case of `NC(CO)(CO)CO`, the T/C (dose: 1600.0 mg/kg/injection, schedule: Q01DX007 (ip), vehicle: saline) is reported as 121 % of control.

With `C=C1C(=O)OC(CCCCCCCCCCCCC)C1C(=O)O` (stereo not given) the T/C (dose: 0.25 mg/kg/injection, schedule: Q01DX009 (ip), vehicle: saline with Tween-80) was 99 % of control, the T/C (dose: 0.5 mg/kg/injection, schedule: Q01DX009 (ip), vehicle: saline with Tween-80) was 101 % of control and the T/C (dose: 1.0 mg/kg/injection, schedule: Q01DX009 (ip), vehicle: saline with Tween-80) was 100 % of control.

In the case of `Cn1c([N+](=O)[O-])cnc1N1CCN(c2nncs2)C1=O`, the T/C (dose: 60.0 mg/kg/injection, schedule: Q01DX005 (ip), vehicle: saline) is reported as 100 % of control, the T/C (dose: 120.0 mg/kg/injection, schedule: Q01DX005 (ip), vehicle: saline) is reported as 101 % of control and the T/C (dose: 240.0 mg/kg/injection, schedule: Q01DX005 (ip), vehicle: saline) is reported as 100 % of control.

`COc1cc2cc[n+]3c(C)c4cc5c(cc4cc3c2cc1OC)OCO5` (tested in a mixture with another compound) was tested, and the T/C (dose: 0.88 mg/kg/injection, schedule: Q01DX009 (ip), vehicle: saline) was 124 % of control, the T/C (dose: 8.33 mg/kg/injection, schedule: Q01DX009 (ip), vehicle: saline) was 166 % of control and the T/C (dose: 12.5 mg/kg/injection, schedule: Q01DX009 (ip), vehicle: saline) was 175 % of control. For the same compound, the T/C (dose: 18.7 mg/kg/injection, schedule: Q01DX009 (ip), vehicle: saline) was 198 % of control.

With `CC(=O)/C(C=NCC(C)(CN=C/C(C(C)=O)=C(/C)O)CN=C/C(C(C)=O)=C(/C)O)=C(\C)O` (stereo not given) the T/C (dose: 50.0 mg/kg/injection, schedule: Q01DX009 (ip), vehicle: Klucel (hydroxypropylcellulose) (HPC)) was 97 % of control, the T/C (dose: 100.0 mg/kg/injection, schedule: Q01DX009 (ip), vehicle: Klucel (hydroxypropylcellulose) (HPC)) was 100 % of control and the T/C (dose: 200.0 mg/kg/injection, schedule: Q01DX009 (ip), vehicle: Klucel (hydroxypropylcellulose) (HPC)) was 100 % of control.

In the case of `Nc1nc(N)c(Cc2ccccn2)cc1Cc1ccccn1`, the T/C [10] is reported as 98 % of control and the T/C [11] is reported as 103 % of control.

For `C(=N\Nc1nn[nH]n1)/c1ccccc1`, the T/C (dose: 50.0 mg/kg/injection, schedule: Q01DX009 (ip), vehicle: suspension in saline) was 98 % of control, the T/C (dose: 100.0 mg/kg/injection, schedule: Q01DX009 (ip), vehicle: suspension in saline) was 97 % of control and the T/C (dose: 200.0 mg/kg/injection, schedule: Q01DX009 (ip), vehicle: suspension in saline) was 104 % of control.

In the case of `COc1cc2cc(c1Cl)N(C)C(=O)C[C@H](OC(=O)[C@H](C)N(C)C(=O)CC(C)C)[C@]1(C)O[C@H]1[C@H](C)[C@@H]1C[C@@](O)(NC(=O)O1)[C@H](OC)C=C/C=C(\C)C2`, the T/C (dose: 0.1 micrograms/kg/injection, schedule: Q01DX009 (ip), vehicle: saline) is reported as 107 % of control, the T/C (dose: 0.2 micrograms/kg/injection, schedule: Q01DX009 (ip), vehicle: saline) is reported as 107 % of control and the T/C (dose: 0.4 micrograms/kg/injection, schedule: Q01DX009 (ip), vehicle: saline) is reported as 114 % of control. For the same compound, the T/C (dose: 6.3 micrograms/kg/injection, schedule: Q01DX009 (ip), vehicle: saline + alcohol) was 158 % of control, the T/C (dose: 12.5 micrograms/kg/injection, schedule: Q01DX009 (ip), vehicle: saline + alcohol) was 169 % of control and the T/C (dose: 25.0 micrograms/kg/injection, schedule: Q01DX009 (ip), vehicle: saline + alcohol) was 198 % of control.
